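Five concentrations, 48 hours, 96-well plates. At the GI50, growth is halved.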 Calls of active or inactive are those of the source. Cut-off read from the data, not from the text of the source: active = GI50 up to about 1.1 µM and inactive = higher. A value given as a limit tells only on which side of the number the result lay.

Test systems include A549; CCRF-CEM; COLO 205; HCC 2998; HCT-116; HCT-15; NCI-H226; NCI-H23; OVCAR-3; SK-MEL-5; SNB-75; SW-620; NCI-H460; UACC-257; A498; SR.
Holding throughout (test): NCI anticancer screen, dose series, 48 h

On to `c1ccc(-c2csc3ncn4cnnc4c23)cc1`, for which the GI50 with A549 is > 100 µM (inactive); in the test with CCRF-CEM, 85.9 µM (inactive); with COLO 205, > 100 µM (inactive); with HCC 2998, > 100 µM (inactive); with HCT-116, 91.4 µM (inactive); in the test on HCT-15 it was 95.3 µM. Moreover, the GI50 in the test with NCI-H226 is 54.1 µM (inactive); with NCI-H23, 90.2 µM (inactive); in the test on OVCAR-3, > 100 µM (inactive); with SK-MEL-5, 58.1 µM (inactive); in the test with SNB-75 it was 22.3 µM (inactive); in the test on SW-620 it was > 100 µM (inactive).
Regarding `CCCCCCCCCC(=O)CC(=O)c1c(O)cccc1O`, the GI50 is 28.8 µM (inactive) in the test on A549; 27.4 µM (inactive) in the test on CCRF-CEM; 18.7 µM (inactive) with COLO 205; 44.6 µM (inactive) with HCC 2998; 33.4 µM (inactive) in the test with HCT-116; 25.9 µM (inactive) in the test with NCI-H226. Moreover, the GI50 in the test with NCI-H23 was 30.5 µM (inactive); in the test on NCI-H460 it was 34.5 µM (inactive); in the test on OVCAR-3, 29.2 µM (inactive); in the test with SNB-75, 28 µM (inactive); with SW-620, 28.8 µM (inactive); with UACC-257, 38.2 µM (inactive).
Take `COc1nc2c(nc(N)n2C2OC(CO)C(O)C(O)C2O)c(=O)n1C` (stereo unspecified): the GI50 in the test with A498, in the test with A549, in the test on CCRF-CEM, with COLO 205, in the test with HCC 2998 and in the test with HCT-116 was > 100 µM (inactive) throughout. Besides, the GI50 with NCI-H226, with NCI-H23, with NCI-H460, in the test on OVCAR-3, with SK-MEL-5 and in the test with SNB-75 was > 100 µM (inactive) each time. In addition, the GI50 in the test with SR, with SW-620 and with UACC-257 was > 100 µM (inactive) throughout.
In the case of `Oc1c(-c2ccccc2)nc2ccccn12`, the GI50 with A498, with A549, in the test on CCRF-CEM, with HCC 2998, in the test on HCT-116 and in the test with NCI-H226 was > 100 µM (inactive) each time. In addition, the GI50 with NCI-H23, with NCI-H460, in the test on OVCAR-3, in the test with SK-MEL-5, in the test on SNB-75 and with SR was > 100 µM (inactive) in each case. In addition, the GI50 with SW-620 and in the test with UACC-257 was > 100 µM (inactive) in each case.
Regarding `O=C1O[C@@H](c2ccc3c(c2)OCO3)C2C(=O)O[C@@H](c3ccc4c(c3)OCO4)C12` (stereo partly specified), the GI50 in the test on A498, in the test on A549, in the test with CCRF-CEM, with COLO 205, with HCC 2998 and with HCT-116 was > 100 µM (inactive) in each case. Moreover, the GI50 is above 100 µM with HCT-15; > 100 µM (inactive) with NCI-H226; > 100 µM (inactive) in the test on NCI-H23; > 100 µM (inactive) in the test on NCI-H460; > 100 µM (inactive) with OVCAR-3; > 100 µM (inactive) with SK-MEL-5. The GI50 in the test with SNB-75 was 83.6 µM (inactive); in the test with SW-620 it was > 100 µM (inactive); with UACC-257, > 100 µM (inactive).
In the case of `Cc1cccc(NC(=O)CSc2nnc(-c3ccc(/N=C\c4ccc(Cl)cc4)cc3)o2)c1`, the GI50 in the test with A549 is > 100 µM (inactive); with CCRF-CEM it was > 100 µM (inactive); in the test on COLO 205 it was > 100 µM (inactive); in the test on HCT-116, > 100 µM (inactive); with HCT-15, above 100 µM; in the test on NCI-H226 it was > 100 µM (inactive). In addition, the GI50 with NCI-H23, with NCI-H460, with SK-MEL-5, with SNB-75, in the test with SR and in the test on SW-620 was > 100 µM (inactive) in each case. Besides, in the test with UACC-257, the GI50 was > 100 µM (inactive).
Regarding `CNC(=S)/N=C(\N)N(C)C`, the GI50 was > 100 µM (inactive) in the test with A498; > 100 µM (inactive) in the test with A549; > 100 µM (inactive) in the test with COLO 205; > 100 µM (inactive) with HCC 2998; > 100 µM (inactive) in the test with HCT-116; above 100 µM in the test on HCT-15. In addition, the GI50 is > 100 µM (inactive) in the test on NCI-H226; > 10 µM (inactive) in the test on NCI-H23; > 100 µM (inactive) with NCI-H460; > 100 µM (inactive) in the test on OVCAR-3; > 100 µM (inactive) with SK-MEL-5; > 100 µM (inactive) with SNB-75. Besides, the GI50 in the test on SR is > 100 µM (inactive); in the test on SW-620, > 100 µM (inactive); in the test with UACC-257, > 10 µM (inactive).
Regarding `CCCCCCCCCCCCOC(=S)NCCCC`, the GI50 in the test with A498 is 20 µM (inactive); with CCRF-CEM it was 27.5 µM (inactive); with HCC 2998, 18 µM (inactive); in the test on HCT-116, 18.6 µM (inactive); with HCT-15, 19.5 µM; with NCI-H226, 20.1 µM (inactive). For the same compound, the GI50 is 23 µM (inactive) in the test on NCI-H23; 24.4 µM (inactive) with NCI-H460; 30.3 µM (inactive) with SNB-75; 19 µM (inactive) in the test on SR; 17.7 µM (inactive) in the test with SW-620; 16.5 µM (inactive) with UACC-257.
Regarding `CC(C)C(=O)N1Cc2cc(Cl)cc(Cl)c2OC(=O)c2ccccc21`, the GI50 in the test with A498 is 27.5 µM (inactive); in the test on A549, 31 µM (inactive); with CCRF-CEM, 27 µM (inactive); in the test on COLO 205, 59.3 µM (inactive); with HCC 2998, 28.4 µM (inactive); with HCT-116 it was 38 µM (inactive). The GI50 in the test on HCT-15 was 27.5 µM; in the test with NCI-H226, 23.1 µM (inactive); with NCI-H23, 66.2 µM (inactive); with NCI-H460, 33 µM (inactive); in the test on OVCAR-3, 22 µM (inactive); in the test with SK-MEL-5 it was 19.2 µM (inactive). Further, the results for the GI50 in the test on SNB-75, in the test with SW-620 and in the test on UACC-257 were 30.3 µM (inactive), 33 µM (inactive) and 17.2 µM (inactive), respectively.
Regarding `CCOC(=O)NC(=O)c1cn(CCCCCCCCCCC(=O)NCCCN2CCN(CCCNC(=O)CCCCCCCCCCn3cc(C(=O)NC(=O)OCC)c(=O)[nH]c3=O)CC2)c(=O)[nH]c1=O`, the GI50 in the test on A498, in the test on A549, in the test with CCRF-CEM, with COLO 205, in the test on HCC 2998 and in the test on HCT-116 was > 100 µM (inactive) each time. Besides, the GI50 in the test with HCT-15 was above 100 µM; with NCI-H23, > 100 µM (inactive); with NCI-H460, > 100 µM (inactive); in the test with OVCAR-3, > 10 µM (inactive); in the test on SNB-75 it was > 100 µM (inactive); with SR it was > 100 µM (inactive). For the same compound, the GI50 in the test on SW-620 and in the test with UACC-257 was > 100 µM (inactive) each time.
`Nc1nc(-c2ccc(Cl)c([N+](=O)[O-])c2)cs1`: the GI50 with A498 is 20 µM (inactive); in the test with A549, > 100 µM (inactive); in the test on CCRF-CEM, > 100 µM (inactive); in the test with COLO 205 it was > 100 µM (inactive); in the test on HCC 2998, > 100 µM (inactive); in the test with HCT-116, 58.7 µM (inactive). For the same compound, the GI50 with HCT-15 is above 100 µM; in the test with NCI-H23, 73.5 µM (inactive); with NCI-H460, > 100 µM (inactive); in the test on OVCAR-3 it was > 100 µM (inactive); in the test with SK-MEL-5, > 100 µM (inactive); in the test on SNB-75, 30.4 µM (inactive). Also, the GI50 in the test on SW-620 and in the test with UACC-257 was > 100 µM (inactive) throughout.
On to `CCOC(=O)N(c1ccccc1)N(CC)C(=O)/C(C)=N/Nc1ccc([N+](=O)[O-])cc1`, for which the GI50 in the test on A498 was 14.3 µM (inactive); with A549, 16.7 µM (inactive); in the test with CCRF-CEM, 17.2 µM (inactive); in the test with COLO 205, 17.2 µM (inactive); in the test with HCC 2998, 18 µM (inactive); in the test on HCT-116, 14.1 µM (inactive). The GI50 in the test on HCT-15 is 16 µM; in the test on NCI-H226, 22 µM (inactive); with NCI-H23, 18 µM (inactive); with OVCAR-3 it was 16.2 µM (inactive); with SNB-75 it was 18.1 µM (inactive); with SR, 21.7 µM (inactive). For the same compound, the figures for the GI50 with SW-620 and with UACC-257 were 19.3 µM (inactive) and 15 µM (inactive), respectively.
With `c1cc(C2O[C@H]3CCCN3[C@@H]2c2ccncc2)ccn1` (stereo partly specified), the GI50 in the test on A498 was > 100 µM (inactive); with A549 it was > 100 µM (inactive); with CCRF-CEM, > 100 µM (inactive); in the test with COLO 205 it was > 100 µM (inactive); with HCT-116, > 100 µM (inactive); with HCT-15, above 100 µM. Further, the GI50 in the test on NCI-H226, in the test with NCI-H23, in the test on NCI-H460, in the test on OVCAR-3, in the test with SK-MEL-5 and in the test with SNB-75 was > 100 µM (inactive) throughout. The GI50 in the test on SW-620 and in the test on UACC-257 was > 100 µM (inactive) throughout.
On to `COc1ccc(C(O)c2cc(OC)c(OC)c(OC)c2)cc1` (stereo unspecified), for which the GI50 with A498 is 25.9 µM (inactive); with A549, 17.1 µM (inactive); in the test on CCRF-CEM, 20 µM (inactive); in the test on COLO 205, 8.73 µM (inactive); in the test with HCT-116, 24.2 µM (inactive); in the test with HCT-15, 8.77 µM. Also, the GI50 with NCI-H226 was 32.4 µM (inactive); in the test with NCI-H460, 31.6 µM (inactive); in the test on OVCAR-3 it was 18.5 µM (inactive); with SK-MEL-5, 17 µM (inactive); with SW-620, 6.85 µM (inactive); in the test with UACC-257 it was 38.2 µM (inactive).

These data come from ChEMBL document CHEMBL1201862, “PubChem BioAssay data set” (2004).
